# A melting point compilation (Tetko et al.; mined from patent text by program, amines drawn as free bases though some values may be those of a salt)
row,Compound,melting point
1,COc1cc(C#Cc2ccccc2)c(OC)cc1C#Cc1ccccc1,172 to 174 °C
2,Nc1cc(S(=O)(=O)c2ccccc2)ccc1Cl,105 to 107 °C
3,CN1CCCC1=NC(=O)Nc1cccc(C#N)c1,145 to 147 °C
4,Cc1ccc2[nH]c(NC(=O)c3ccccc3)nc(=O)c2c1,240 to 242 °C
5,Cc1nn(C)c2nc(-c3ccccc3)cc(O)c12,262 to 264 °C
6,Cc1cnc2c(C#N)c(C)nn2c1-c1cccnc1,207 to 209 °C
7,CN(c1ccnc(C(N)=O)c1)c1ccccc1C(=O)Nc1cc2ccccc2cn1,200 °C
8,CCC(CC)n1nnc2c(Nc3ccc(C(C)=O)cc3Br)nc(C)nc21,153 to 154 °C
9,Cn1nc(-c2ccccc2)c(OC(C)(C)C)c1-c1ccccc1,106 to 108 °C
10,ClC(=NN=Cc1cccnc1)c1cccnc1,103 to 105 °C
11,COc1cc(C(N)=O)ccc1OCCCN1CCC(c2noc3cc(F)ccc23)CC1,163 to 164 °C
12,Cc1cc2n(n1)-c1ccc(Cl)cc1C(c1ccccc1)NC2=O (stereo not drawn),258 to 261 °C
13,OC1CSC(Oc2cncc(-c3ccc(F)cn3)c2)C(O)C1O (stereo not drawn),166 to 190 °C
14,CC1=NN=C(c2ccc([N+](=O)[O-])c(C)c2)c2cc3c(cc2C1)OCO3,189 to 194 °C
15,CC(=O)C(=[N+]=[N-])S(=O)(=O)C(C)C,53 to 55 °C
16,c1ccc2c(NC3CCC(Nc4nccc5ccccc45)CC3)nccc2c1 (stereo not drawn),278 to 280 °C
17,Cc1sc(-c2cn[nH]c2)nc1O,124 to 125 °C
18,Cc1noc(-c2c(C)ncn2C)n1,95 °C
19,COC(=O)c1coc(CN2C(=O)C3(COc4cc5c(cc43)OCO5)c3ccccc32)n1 (stereo not drawn),183 to 185 °C
20,NS(=O)(=O)c1cc2ccc(O)cc2c(S(N)(=O)=O)c1-c1cccc(Cl)c1O,135 to 137 °C
21,CCOc1ccc(C(=O)NCCN2CCC(Oc3ccc(Cl)c(Cl)c3)CC2)cc1,118 to 120 °C
22,N[C@@H](Cc1cccc(Oc2ccc(Oc3ccc(O)cc3)cc2)c1)C(=O)O,67 to 71 °C
23,CCOC(=O)C1=C(COCC(N)=O)NC(C)=C(C(=O)OC)C1c1ccccc1Cl (stereo not drawn),127 to 128 °C
24,O=C(O)[C@@H](O)Cc1ccc(O)c([N+](=O)[O-])c1,111 °C
25,COC(=O)CSc1nc(SCc2c(Cl)cccc2Cl)ncc1[N+](=O)[O-],155 to 158 °C
26,CN(c1ccccc1)c1ncccc1NC(=O)c1ccccc1Cl,145 to 146 °C

row,Compound,melting point
1,Cc1cc(N)c(Cl)c(N)c1,114 to 116 °C
2,NCCNC(c1ccccc1)c1ccccc1,23 to 24 °C
3,COC(CCCNC(=O)C=CC(=O)NCCCC(OC)OC)OC,170 to 172 °C
4,COc1cc2c(cc1OC)CN(CCc1ccc(NC(=O)c3cccc4c(=O)c5cccc(OC)c5[nH]c34)cc1)CC2,215 to 225 °C
5,CCOC(=O)C(CBr)=C1CC(=O)CCC1=N,170 to 175 °C
6,CCOc1c(C)c(N2CCN(c3ccc(F)cc3)CC2)c(C)c2c1OC(C)C2 (stereo not drawn),136 to 138 °C
7,Clc1ccc2c(n1)C(c1ccccc1Cl)NCc1nncn1-2 (stereo not drawn),206 to 208 °C
8,COC(=O)c1cc2cc(OC)c(OC)cc2c(-c2ccnc(-n3c(=O)cc(NCCCn4ccnc4)c4ccccc43)c2)c1C(=O)OC,142 to 148 °C
9,Nc1ccc(-c2ncc(C(F)(F)F)cc2Cl)cc1[N+](=O)[O-],126 to 127 °C
10,O=C(CC1CC1)N[C@H]1CC[C@H](CCN2CCN(c3nccc4c3OCC4)CC2)CC1,198 °C
11,CNC(=Nc1cc(Cl)ccc1N1CCOCC1)NC,145 to 146 °C
12,Cc1nn(C)c(C2=NC(C)CN2)c1[N+](=O)[O-] (stereo not drawn),98 to 101 °C
13,CCOC(=O)c1c(C)cc2c(=O)n(-c3ccccc3Cl)cnc2c1C,151 to 152 °C
14,CON=CC(C)(C)NC(=O)c1c(I)cccc1C(=O)Nc1ccc(OC(C(F)(F)F)C(F)(F)F)nc1C,220 °C
15,CC(C(=O)O)c1ccc(C(=O)c2ccc3ccccc3c2)cc1 (stereo not drawn),150 °C
16,N#CCN(C1CC1)S(=O)(=O)Cc1cccc(C(F)(F)F)c1,70.1 to 71 °C
17,CC1(C)CCC(C)(C)c2cc(S(=O)Cc3ccc(C(=O)O)cc3)ccc21 (stereo not drawn),198 to 200 °C
18,CCCC(=O)c1cnc2ccsc2c1Nc1ccccc1C(C)C,118 to 120 °C
19,FC(F)(F)c1ccc(-c2cc(Cl)ncn2)cc1,227 to 230 °C
20,COCCO[C@@H]1c2ccc3[nH]c(C)nc3c2O[C@H](c2ccccc2)[C@H]1O,117 °C
21,Cc1ccc(S(=O)(=O)Nc2cccc3cc(C(=O)Nc4ccccc4)[nH]c23)cc1,247 to 248 °C
22,Cc1ccc(NC(=O)c2cccc(CN3C(=O)C4(COc5cc6c(cc54)CCO6)c4ccccc43)c2)c(C)c1 (stereo not drawn),234 to 235 °C
23,CC(C)Cc1ccc2c(c1O)C(=O)c1c(ccc(CC(C)C)c1O)C2=O,138 to 140 °C
24,CC(=O)CC(=O)c1cccc2[nH]ccc12,104 to 105 °C
25,CCCc1c(O)c(C(C)=O)cc2ccc(C(=O)OC)nc12,110 to 111 °C
26,CCCS(=O)(=O)N=C(NC)NCCSCc1[nH]cnc1C,73 to 74 °C

row,Compound,melting point
1,CCOC1c2ccccc2-c2[nH]c(=O)c(=O)[nH]c21 (stereo not drawn),> 300 °C
2,COc1cccc2cc(C(=O)N[C@@H](CC(N)=O)C(=O)N[C@@H](Cc3ccccc3)[C@H](O)C(=O)N3C[C@@H](Cl)C[C@H]3C(=O)NC(C)(C)C)oc12,125 to 136 °C
3,Cn1cc(-c2cncc(OC3SCC(O)C(O)C3O)c2)c(C(F)(F)F)n1 (stereo not drawn),210 °C
4,COC(=O)C1CC2=C(CO1)C(=O)c1cc3ccccc3c(OC(C)=O)c1C2=O (stereo not drawn),196 to 198 °C
5,N#Cc1cccc(-c2cnco2)n1,148 °C
6,O=c1[nH]c2ncc(-c3ccc(O)cc3)nc2n1C1CCCC1,299 to 301 °C
7,CN(C)S(=O)(=O)c1ccc(C(O)c2cccc(O[Si](C)(C)C(C)(C)C)c2)cc1 (stereo not drawn),100 to 103 °C
8,CC(C)c1ccc(C(=O)c2ccc(N)cc2)cc1,110 °C
9,Cc1cc(C)c(S(=O)(=O)NCC2CCN(S(=O)(=O)c3c(C)cc(C)cc3C)CC2)c(C)c1,202 to 204 °C
10,O=C1c2cc(O)ccc2CN1c1ccc2sccc2c1,226 to 228 °C
11,Cc1oc(-c2ccccc2)nc1COc1ccc(COc2nn(-c3ccccc3)cc2CC(=O)O)cc1,151 to 152 °C
12,O=C(O)[C@@H]1O[C@@H]1c1ccccc1,81.5 to 83 °C
13,COc1cc(Nc2nc3ccnc(-c4ccc(N)cc4)c3o2)cc(OC)c1OC,148 to 151 °C
14,CC(O)c1cc(S(N)(=O)=O)sc1Sc1ccc(O)cc1 (stereo not drawn),133 to 137 °C
15,COc1ccc(CNc2c(C)c(C)c3c(c2C)C(c2ccc(C(C)C)cc2)C(C)(C)O3)cc1 (stereo not drawn),95 to 96 °C
16,COc1nc(C)cnc1NS(=O)(=O)c1cccnc1-c1ccc(OC(C)(C)CO)cc1,182 to 184 °C
17,CCCCCCCCCCCCCCOc1ccc(C(=O)OCC)cc1,34 to 35 °C
18,N#CSCCNc1ccc(C(F)(F)F)cc1[N+](=O)[O-],115 to 117 °C
19,CC(C)c1nc(CN2C(=O)C3(COc4cc5c(cc43)OCO5)c3cccc(C#N)c32)cs1 (stereo not drawn),162 to 163 °C
20,COc1ccc(-c2cnc[nH]c2=O)cc1OC,205 to 206 °C
21,CSc1n[nH]c(=O)n1C,97 °C
22,CC1=C(C2OC(=O)NC2=O)CCCC1 (stereo not drawn),104 to 106 °C
23,O=[N+]([O-])c1ccc(N2CCCC2)c(S(=O)(=O)O)c1,178 to 179 °C
24,CC(CF)(CF)C(=O)C(Br)Oc1ccc(Cl)cc1 (stereo not drawn),54 to 57 °C
25,CS(=O)(=O)Nc1ccccc1SC1CCCCC1,50 to 51 °C
26,COc1ccc2cc(OCc3ccccc3)c(N)cc2c1,149 to 151 °C

row,Compound,melting point
1,CC(C)n1nc(-c2sc(NC(=O)c3ccc(CN4CCCCC4)cc3)nc2-c2ccccc2)ccc1=O,136 to 138 °C
2,O=C(O)CC1CCC(N2CCN(CCNc3ccncc3)CC2)CC1 (stereo not drawn),220 °C
3,C[Si](C)(C)C1([Si](C)(C)C)c2ccccc2-c2ccccc21,110 to 112 °C
4,OCc1ccccc1-c1nc(-c2ccc(Cl)cc2)n[nH]1,252 to 254 °C
5,C=Cc1ccc(NN2C(=O)c3ccccc3C2=O)cc1,174 to 176 °C
6,Nc1cc(C=O)nc(CC2CC2)c1F,99 to 100 °C
7,OC1CCCCc2cc(OCC3CCCCC3)ccc21 (stereo not drawn),102 to 103 °C
8,O=C1c2ccncc2C(=O)c2c(Cl)ccc(F)c21,204 to 206 °C
9,CCOC(=O)c1c(CN(CC)CC)nc2sc3c(c2c1-c1ccc(OC)c(OC)c1)CCN(C(=O)Nc1ccccc1)C3,154 to 155 °C
10,CC(C)c1cc(C(C)C)c(NC(=O)CN2CCN(CCSc3nc4ccccc4[nH]3)CC2)c(C(C)C)c1,217 to 218 °C
11,CC(=O)C1=C(O)c2c(c3ccccc3n2C)S(=O)(=O)N1,210 to 211 °C
12,CC1=Cc2ccncc2C(C)(NS(=O)(=O)c2ccc(C)cc2)c2ccccc21 (stereo not drawn),174 to 177 °C
13,BrCc1ccc(OCC(c2ccccc2)c2ccccc2)cc1,70 to 73 °C
14,Cc1ccc(C(O)CN(C)Cc2cc3c(=O)c(C(=O)NCc4ccc(Cl)cc4)cn(C)c3o2)o1 (stereo not drawn),130 to 132 °C
15,CCCN1CCO[C@@H]2c3cc4c(=O)n(OC)ccc4cc3CC[C@H]21,142 to 145 °C
16,Cc1nc2cc(NCC(=O)C(C)(C)C)ccc2s1,108 to 111 °C
17,CCC=NNC=C(C(=O)OCC)C(=O)c1cc(F)c(F)c(F)c1F,86 °C
18,CCc1ccc(-c2c(Cl)c(CN3C(=O)CCC3=O)nc3sc4c(c23)CCN(C(=O)OCc2ccccc2)C4)cc1,170 to 171 °C
19,Brc1ccc(Cn2cncn2)cc1,77 to 79 °C
20,N=C(NO)c1cnc(N)nc1,218 °C
21,CCC(CCCc1cc(OC)c(OC)c(OC)c1)(c1cccs1)N(C)C (stereo not drawn),62 to 63 °C
22,COC(=O)c1ccc(Br)c(O)c1,130 to 132 °C
23,Cc1ccc(-c2nn(C(C)(C)C)c(N)c2C#N)cc1,174 to 176 °C
24,N#Cc1cc([N+](=O)[O-])cc(C#N)c1N,160 to 163 °C
25,CCOC(=O)c1c(Cl)c2sccc2[nH]c1=O,206 °C
